The text below walks through data of patent US8778987B2, “Use of 4-hydroxychalcone derivatives for masking an unpleasant taste” (Symrise AG, priority 2008, dated 2014).

Assay type in all cases: in vivo
The test system of experiment [1] is bitter impression of aqueous caffeine solution. The experiment in a line: Reducing bitterness of a bitter substance solution, rated by a panel of experts (caffeine). The conditions noted are these: 500 ppm caffeine; for Bitter impression (1-10) with: error = 95% confidence range. How it is done: (§1) In order to quantify the reduction in the bitter impression, the bitterness of an aqueous bitter substance solution and a sample containing the same quantity of bitter substance and a varying quantity of the exemplary compound, was determined by a panel of experts (rating 0 [not bitter] to 10 [extremely bitter]). Evaluation took place by calculating the reduction (in %) in the bitter impression from the average values of the assessments of the bitter substance solution or the solutions containing bitter substance and exemplary compound. […] (2,4-DHB) was used as a comparison from U.S. Pat. No. 5,643,941.

Experiment [2] relates to bitter impression of aqueous quinine hydrochloride solution. The experiment in a line: Reducing bitterness of a bitter substance solution, rated by a panel of experts (quinine hydrochloride). The conditions noted are these: 30 ppm substance, 5 ppm quinine hydrochloride. How it is done: as §1
Experiment [3] deals with bitter impression of aqueous salicin solution. The experiment in a line: Reducing bitterness of a bitter substance solution, rated by a panel of experts (salicin). The conditions noted are these: 30 ppm substance, 250 ppm salicin. How it is done: as §1
For experiment [4], the system named is taste impressions of meat stock with 0.4 wt. % sodium chloride and 0.4 wt. % potassium chloride. The experiment in a line: Reduction in unpleasant taste impressions of potassium chloride-containing meat stock (triangle difference testing). The conditions noted are these: 30 ppm. How it is done:
A fat- and common salt-free meat stock is prepared with 0.4 wt. % sodium chloride and 0.4 wt. % potassium chloride (in each case relative to total weight) (comparison solution A). The same solution is prepared again and a quantity of phloretin (compound 4 from Example 1) is added. Solution A is served up to the testers once with the designation “standard solution”, and at the same time solution A and solution B are served up as “test solution 1” or “test solution 2” in a random order unknown to the respective tester (i.e. solutions A and B may have different designations for different testers; each tester has to test three solutions). In a first test phase, the testers are asked whether one of the three solutions tastes different from the other two (triangle difference testing). If the response to this question is “No”, the test is stopped for that tester. If the response to this question is “Yes”, the tester has to quantify the flavor qualities, listed below, of “test solution 1” or “test solution 2” deviating from the “standard solution” (relative to the “standard solution”, 0 flavor quality identical to the standard, −4 very much weaker than the standard, +4 very much stronger than the standard). Taking as basis the results from all the testers, the average of all deviations from the “standard solution” is calculated for the individual flavor qualities.

Take `O=C(O)c1ccc(O)cc1O` [2,4-DHB, 2,4-dihydroxybenzoic acid, reference compound]: in experiment [1] (100 ppm substance), the “% reduction in bitter impression” value was 3%, n.s and the “Bitter impression (1-10) with” value came out at 5.0 ± 1.0. In addition, the “Tester positive (number of testers who were able to identify masking)” value (from here on “Tester positive”) in experiment [1] (100 ppm substance, 15 testers total) turned out to be 9.
Regarding `O=C(CCc1ccc(O)cc1)c1c(O)cc(O)cc1O` [Compound 4, 3-(4-hydroxyphenyl)-1-(2,4,6-trihydroxy-phenyl)propan-1-one], in experiment [1] (50 ppm substance), the “% reduction in bitter impression” value was 28%, p < 0.05; the “Tester positive” value is 13; the “Bitter impression (1-10) with” value worked out at 3.9 ± 1.8. Moreover, in experiment [2], the “% reduction in bitter impression” value is recorded as 25%, n.s. For the same compound, the “Tester positive” value in experiment [2] (15 testers total) was found to be 10. Besides, the “Bitter impression (1-10) with” value in experiment [2] (error = 95% confidence range) amounted to 2.0 ± 1.4. Also, the “% reduction in bitter impression” value in experiment [3] is 18%, p < 0.1. Besides, in experiment [3] (15 testers total), the “Tester positive” value stood at 10. Further, the “Bitter impression (1-10) with” value in experiment [3] (error = 95% confidence range) is given as 6.0 ± 1.8. Besides, the Positive testers in experiment [4] (of 21 testers, triangle difference testing) is on record as 16 (p < 0.05). Further, in experiment [4] (scale −4 to +4), the “Aromaticity, average deviation from standard solution” value was −0.1; the “Bitter, average deviation from standard solution” value is on record as −0.4; the “Mouth fullness, average deviation from standard solution” value was 0.3; the “Sour, average deviation from standard solution” value is recorded as 0.1. Also, the “Sweet, average deviation from standard solution” value in experiment [4] (scale −4 to +4) came out at 0.9. In addition, the “Salty, average deviation from standard solution” value in experiment [4] (scale −4 very much weaker to +4 very much stronger than the standard) is recorded as −0.7.
